Tests used:
Assay type in all cases: cell-based, human
[1] = tested on: BTSC73M; experiment: alamarBlue cell viability, BTSC 73M; conditions: Table 4 library screen, alamarBlue; for IC50: Homo sapiens, read-out: 73M IC50
Description: (§1) First, the library was screened for biological activity against a set of three representative GBM BTSCs derived from GBM patients, including the very aggressive GBM BTSC lines, BTSC73M, BTSC30M, BTSC68EF. Dissociated BTSC spheres were seeded at 1500 cells/96-well and treated with drug compound or vehicle (DMSO) one day after plating. Cell viability following drug treatment was assessed after 72 hrs using the ALAMARBLUE™ assay (Invitrogen) according to the manufacturer's instructions. All culture experiments were performed in triplicate with a minimum of three wells per condition.
(§2) BTSC spheres were dissociated to single cells with the enzyme Accumax (Innovative Technologies), seeded at 1500 cells/96-well and treated with drug or vehicle (DMSO) one day after plating. […] BTSC spheres were dissociated to single cells as above and plated in 96 well plates in triplicate at 3000 cells/96-well. […] Cell viability following drug treatment was assessed three days later using the ALAMARBLUE™ assay (Invitrogen) according to the manufacturer's instructions. All culture experiments were performed in triplicate with a minimum of three wells per condition.

[2] = tested on: BTSC68EF; experiment: alamarBlue cell viability, BTSC 68EF; conditions: Table 4 library screen, alamarBlue; for IC50: Homo sapiens, read-out: 68EF IC50
Description: as §1, §2

[3] = tested on: 147EF; experiment: alamarBlue cell viability, BTSC 147EF; conditions: Table 4 library screen; for IC50: Homo sapiens
Description: BTSC spheres were dissociated to single cells with the enzyme Accumax (Innovative Technologies), seeded at 1500 cells/96-well and treated with drug or vehicle (DMSO) one day after plating. Cytotoxicity studies were repeated independently at Sickkids Hospital using BTSC lines 25M, 67EF, 73EF, 84EF and 127EF. BTSC spheres were dissociated to single cells as above and plated in 96 well plates in triplicate at 3000 cells/96-well. In both sets of experiments drugs were used as serial dilutions within the range of 5 μM to 100 nM in the first set and 25 μM to 10 nM. Cell viability following drug treatment was assessed three days later using the ALAMARBLUE™ assay (Invitrogen) according to the manufacturer's instructions. All culture experiments were performed in triplicate with a minimum of three wells per condition. Table 4 below illustrates a screen of the library against a number of BTSCs using ALAMARBLUE™ assay.

[4] = tested on: BTSC30M; experiment: alamarBlue cell viability, BTSC 30M; conditions: Table 4 library screen, alamarBlue; for IC50: Homo sapiens, read-out: 30M IC50 (μM)
Description: as §1, §2

Row | SMILES | IC50 [1] | IC50 [2] | IC50 [4] | 73M IC50 (μM) [1] | 30M IC50 (μM) [4] | other results
1 | CN(CC(=O)N(Cc1ccc(C2CCCCC2)cc1)c1ccc([N+](=O)[O-])cc1)S(=O)(=O)c1c(F)c(F)c(F)c(F)c1F [Compound 8, N-(4-cyclohexylbenzyl)-N-(4-nitrophenyl)-2-(2,3,4,5,6-pentafluoro-N-methylphenylsulfonamido)acetamide] | 1100 nM | 590 nM | 0.522 µM | – | – | IC50 [3]: 669 nM
2 | Cc1ccc(S(=O)(=O)N(C)CC(=O)N(Cc2ccc(C3CCCCC3)cc2)c2ccc([N+](=O)[O-])cc2)cc1 [Compound 9, N-(4-cyclohexylbenzyl)-2-(N,4-dimethylphenylsulfonamido)-N-(4-nitrophenyl)acetamide] | – | – | – | no effect | no effect | 68EF IC50 (μM) [2]: no effect; 147EF IC50 (μM) [3]: no effect
3 | CN(CC(=O)N(Cc1ccc(C2CCCCC2)cc1)c1ccc(N)cc1)S(=O)(=O)c1c(F)c(F)c(F)c(F)c1F [Compound 10, N-(4-aminophenyl)-N-(4-cyclohexylbenzyl)-2-(2,3,4,5,6-pentafluoro-N-methylphenylsulfonamido)acetamide] | 1810 nM | 1720 nM | 1.33 µM | – | – | IC50 [3]: 1460 nM
4 | CN(CC(=O)N(Cc1ccc(C2CCCCC2)cc1)c1ccc(NS(=O)(=O)c2ccc3ccccc3c2)cc1)S(=O)(=O)c1c(F)c(F)c(F)c(F)c1F [Compound 12, N-(4-cyclohexylbenzyl)-N-(4-(naphthalene-2-sulfonamido)phenyl)-2-(2,3,4,5,6-pentafluoro-N-methylphenylsulfonamido)acetamide] | – | – | – | no effect | no effect | –
5 | CN(CC(=O)N(Cc1ccc(C2CCCCC2)cc1)c1ccc(NS(=O)(=O)c2ccc3ncccc3c2)cc1)S(=O)(=O)c1c(F)c(F)c(F)c(F)c1F [Compound 13, N-(4-cyclohexylbenzyl)-2-(2,3,4,5,6-pentafluoro-N-methylphenylsulfonamido)-N-(4-(quinoline-6-sulfonamido)phenyl)acetamide] | – | – | – | no effect | no effect | –
6 | CN(CC(=O)N(Cc1ccc(C2CCCCC2)cc1)c1ccc(NS(C)(=O)=O)cc1)S(=O)(=O)c1c(F)c(F)c(F)c(F)c1F [Compound 14, N-(4-cyclohexylbenzyl)-N-(4-(methylsulfonamido)phenyl)-2-(2,3,4,5,6-pentafluoro-N-methylphenylsulfonamido)acetamide] | 1810 nM | 806 nM | 0.718 µM | – | – | –
7 | CN(CC(=O)N(Cc1ccc(C2CCCCC2)cc1)c1ccc(NS(=O)(=O)c2cncn2C)cc1)S(=O)(=O)c1c(F)c(F)c(F)c(F)c1F [Compound 15, N-(4-cyclohexylbenzyl)-N-(4-(1-methyl-1H-imidazole-5-sulfonamido)phenyl)-2-(2,3,4,5,6-pentafluoro-N-methylphenylsulfonamido)acetamide] | – | – | 0.607 µM | – | – | –
8 | CN(CC(=O)N(Cc1ccc(C2CCCCC2)cc1)c1ccc(NS(N)(=O)=O)cc1)S(=O)(=O)c1c(F)c(F)c(F)c(F)c1F [Compound 16, N-(4-cyclohexylbenzyl)-2-(2,3,4,5,6-pentafluoro-N-methylphenylsulfonamido)-N-(4-(sulfamoylamino)phenyl)acetamide] | 2040 nM | 839 nM | 0.95 µM | – | – | –
9 | CCOC(=O)C(=O)Nc1ccc(N(Cc2ccc(C3CCCCC3)cc2)C(=O)CN(C)S(=O)(=O)c2c(F)c(F)c(F)c(F)c2F)cc1 [Compound 17, ethyl 2-((4-(N-(4-cyclohexylbenzyl)-2-(2,3,4,5,6-pentafluoro-N-methylphenylsulfonamido)acetamido)phenyl)amino)-2-oxoacetate] | 1240 nM | 631 nM | 0.694 µM | – | – | –
10 | CCOC(=O)C(=O)Nc1ccc(N(Cc2ccc(C3CCCCC3)cc2)C(=O)CN(C)S(=O)(=O)c2ccc(C)cc2)cc1 [Compound 18, ethyl 2-((4-(N-(4-cyclohexylbenzyl)-2-(N,4-dimethylphenylsulfonamido)acetamido)phenyl)amino)-2-oxoacetate] | – | – | – | no effect | no effect | IC50 [3]: 3580 nM
11 | CCOP(=O)(Cc1ccc(N(Cc2ccc(C3CCCCC3)cc2)C(=O)CN(C)S(=O)(=O)c2c(F)c(F)c(F)c(F)c2F)cc1)OCC [Compound 20, diethyl 4-(N-(4-cyclohexylbenzyl)-2-(2,3,4,5,6-pentafluoro-N-methylphenylsulfonamido)acetamido)benzylphosphonate] | 1820 nM | – | 0.664 µM | – | – | 68EF IC50 (μM) [2]: no effect
12 | CN(CC(=O)N(Cc1ccc(C2CCCCC2)cc1)c1ccc(CP(=O)(O)O)cc1)S(=O)(=O)c1c(F)c(F)c(F)c(F)c1F [Compound 21, (4-(N-(4-cyclohexylbenzyl)-2-(2,3,4,5,6-pentafluoro-N-methylphenylsulfonamido)acetamido)benzyl)phosphonic acid] | – | – | – | no effect | – | –
13 | CC(=O)OCOC(=O)c1ccc(N(Cc2ccc(C3CCCCC3)cc2)C(=O)CN(C)S(=O)(=O)c2c(F)c(F)c(F)c(F)c2F)cc1 [Compound 26, acetoxymethyl 4-(N-(4-cyclohexylbenzyl)-2-(2,3,4,5,6-pentafluoro-N-methylphenylsulfonamido)acetamido)benzoate] | 4340 nM | – | 1.95 µM | – | – | –
14 | CN(CC(=O)N(Cc1ccc(C2CCCCC2)cc1)c1ccc(NC(=O)C(=O)O)cc1)S(=O)(=O)c1c(F)c(F)c(F)c(F)c1F [Compound 28, 2-((4-(N-(4-cyclohexylbenzyl)-2-(2,3,4,5,6-pentafluoro-N-methylphenylsulfonamido)acetamido)phenyl)amino)-2-oxoacetic acid] | – | – | – | no effect | no effect | 147EF IC50 (μM) [3]: no effect
15 | CN(CC(=O)N(Cc1ccc(C2CCCCC2)cc1)c1ccc(O)cc1)S(=O)(=O)c1c(F)c(F)c(F)c(F)c1F [Compound 29, N-(4-cyclohexylbenzyl)-N-(4-hydroxphenyl)-2-(2,3,4,5,6-pentafluoro-N-methylphenylsulfonamido)acetamide] | – | 1090 nM | 0.941 µM | – | – | –
16 | CN(CC(=O)N(Cc1ccc(C2CCCCC2)cc1)c1cccc(O)c1)S(=O)(=O)c1c(F)c(F)c(F)c(F)c1F [Compound 30, N-(4-cyclohexylbenzyl)-N-(3-hydroxyphenyl)-2-(2,3,4,5,6-pentafluoro-N-methylphenylsulfonamido)acetamide] | 2840 nM | – | 0.776 µM | – | – | –
17 | CN(CC(=O)N(Cc1ccc(C2CCCCC2)cc1)c1ccc(C#N)cc1)S(=O)(=O)c1c(F)c(F)c(F)c(F)c1F [Compound 34, N-(4-cyanophenyl)-N-(4-cyclohexylbenzyl)-2-(2,3,4,5,6-pentafluoro-N-methylphenylsulfonamido)acetamide] | – | – | 2.23 µM | no effect | – | –
18 | CN(CC(=O)N(Cc1ccc(C2CCCCC2)cc1)c1ccc(-c2nnn[nH]2)cc1)S(=O)(=O)c1c(F)c(F)c(F)c(F)c1F [Compound 35, N-(4-(1H-tetrazol-5-yl)phenyl)-N-(4-cyclohexylbenzyl)-2-(2,3,4,5,6-pentafluoro-N-methylphenylsulfonamido)acetamide] | 2770 nM | – | – | – | no effect | 68EF IC50 (μM) [2]: no effect
19 | CN(CC(=O)N(Cc1ccc(C2CCCCC2)cc1)c1cc(C(=O)O)cc(C(=O)O)c1)S(=O)(=O)c1c(F)c(F)c(F)c(F)c1F [Compound 37, 5-(N-(4-cyclohexylbenzyl)-2-(2,3,4,5,6-pentafluoro-N-methylphenylsulfonamido)acetamido)isophthalic acid] | – | – | – | no effect | no effect | –
20 | COC(=O)c1ccc(N(Cc2ccc(C3CCCCC3)cc2)C(=O)CN(C)S(=O)(=O)c2c(F)c(F)c(F)c(F)c2F)cc1 [Compound 39, methyl 4-(N-(4-cyclohexylbenzyl)-2-(2,3,4,5,6-pentafluoro-N-methylphenylsulfonamido)acetamido)benzoate] | 3320 nM | 607 nM | 1.09 µM | – | – | –
21 | CCOC(=O)c1ccc(N(Cc2ccc(C3CCCCC3)cc2)C(=O)CN(C)S(=O)(=O)c2c(F)c(F)c(F)c(F)c2F)cc1 [Compound 40, ethyl 4-(N-(4-cyclohexylbenzyl)-2-(2,3,4,5,6-pentafluoro-N-methylphenylsulfonamido)acetamido)benzoate] | – | – | – | no effect | – | –
22 | Cc1ccc(S(=O)(=O)N(C)CC(=O)N(Cc2ccc(C3CCCCC3)cc2)c2ccc(NC(=O)C(=O)O)cc2)cc1 [Compound 46, 2-((4-(N-(4-cyclohexylbenzyl)-2-(N,4-dimethylphenylsulfonamido)acetamido)phenyl)amino)-2-oxoacetic acid] | – | – | – | no effect | no effect | 147EF IC50 (μM) [3]: no effect

Reference: patent publication US9650399B2, “Salicylic acid derivatives, pharmaceutically acceptable salt thereof, composition thereof and method of use thereof” (The Governing Council of the University of Toronto, priority 2012, dated 2017)
